Measured values published in PMC11007962, “First-in-human study of GFH018, a small molecule inhibitor of transforming growth factor-β receptor I inhibitor, in patients with advanced solid tumors” (BMC Cancer, 2024).
Marks after values point to notes of the source that are not given here.

Experiment: Plasma pharmacokinetics (LC-MS/MS, noncompartmental analysis)
Type: in vivo, human
Procedure: For patients enrolled in the escalation part of the study, PK blood samples were collected at C1D1 predose; 0.5 h, 1 h, 2 h, 4 h, 8 h, and 12 h postdose; d 2 (24 h), d 3 (48 h), d 4 (72 h), and d 10 predose; d 17 (for 14 d-on/14 d-off regimen) or d 24 (for 7 d-on/7 d-off regimen) predose; and 0.5 h, 1 h, 2 h, 4 h, 8 h, and 12 h postdose. For patients enrolled in the expansion part, PK samples were collected predose on the last administration day and 0.5 h, 1 h, 2 h, 4 h, 8 h, and 12 h postdose on the last administration day. GFH018 levels in plasma samples were analyzed using a validated liquid chromatography-tandem mass spectrometry method. GFH018 PK parameters were determined using noncompartmental analysis methods and calculated using Phoenix WinNonlin Version 8.3.1 (Certara, Princeton, NJ, USA). GFH018 plasma concentrations and PK parameters were summarized descriptively according to the dose level.

[1] = multiple dose, 5 mg BID 14d-on/14d-off (N=3)
[2] = multiple dose, 10 mg BID 14d-on/14d-off (N=3)
[3] = multiple dose, 20 mg BID 14d-on/14d-off (N=3)
[4] = multiple dose, 30 mg BID 14d-on/14d-off (N=7)
[5] = multiple dose, 40 mg BID 14d-on/14d-off (N=3)
[6] = multiple dose, 50 mg BID 14d-on/14d-off (N=2)
[7] = multiple dose, 65 mg BID 14d-on/14d-off (N=6)
[8] = multiple dose, 85 mg BID 7d-on/7d-off (N=5)
[9] = multiple dose, 85 mg BID 14d-on/14d-off (N=7), escalation and expansion parts combined
[10] = single dose, 5 mg BID 14d-on/14d-off (N = 4)
[11] = single dose, 10 mg BID 14d-on/14d-off (N = 3)
[12] = single dose, 20 mg BID 14d-on/14d-off (N = 4)
[13] = single dose, 30 mg BID 14d-on/14d-off (N = 7)
[14] = single dose, 40 mg BID 14d-on/14d-off (N = 4)
[15] = single dose, 50 mg BID 14d-on/14d-off (N = 4)
[16] = single dose, 65 mg BID 14d-on/14d-off (N = 6)
[17] = single dose, 85 mg BID 7d-on/7d-off (N = 6)
[18] = single dose, 85 mg BID 14d-on/14d-off (N = 9), dose escalation part only

## Cc1cccc(-c2nn3c(c2-c2ccc4ncnn4c2/C=C/C(N)=O)CCC3)n1 [GFH018]
5 – 85 mg
  PK linearity: linear and dose-independent
5 – 85 mg (single and multiple dose)
  mean half-life: 2.25 to 8.60 h
All cohorts
  geometric CV% of exposure (Cmax and AUC) at the steady state: 7.3–168.9%
[1]
  AUCtau, geometric mean (geometric CV): 597 (61.1) h*ng/mL
  Cmax, geometric mean (geometric CV): 165 (15.7) ng/mL
  Cmin, geometric mean (geometric CV): 7.48 (208.2) ng/mL
  Racc (accumulation ratio calculated by AUC), geometric mean (geometric CV): 1.02 (37.9)
  Tmax, median (minimum, maximum): 0.88 (0.42, 0.95) h
  t1/2, geometric mean (geometric CV): 2.67 (31.0) h
[2]
  AUCtau, geometric mean (geometric CV): 997 (168.9) h*ng/mL
  Cmax, geometric mean (geometric CV): 291 (124.9) ng/mL
  Cmin, geometric mean (geometric CV): 15.8 (212.1) ng/mL
  Racc (accumulation ratio calculated by AUC), geometric mean (geometric CV): 1.22 (40.3)
  Tmax, median (minimum, maximum): 0.92 (0.90, 1.27) h
  t1/2, geometric mean (geometric CV): 2.25 (26.5) h
[3]
  AUCtau, geometric mean (geometric CV): 2056 (76.9) h*ng/mL
  Cmax, geometric mean (geometric CV): 676 (48.0) ng/mL
  Cmin, geometric mean (geometric CV): 25.5 (137.3) ng/mL
  Racc (accumulation ratio calculated by AUC), geometric mean (geometric CV): 1.15 (17.4)
  Tmax, median (minimum, maximum): 0.93 (0.57, 1.08) h
  t1/2, geometric mean (geometric CV): 2.55 (24.6) h
[4]
  AUCtau, geometric mean (geometric CV): 5605 (76.6) h*ng/mL
  Cmax, geometric mean (geometric CV): 1167 (87.9) ng/mL
  Cmin, geometric mean (geometric CV): 144 (107.2) ng/mL
  Racc (accumulation ratio calculated by AUC), geometric mean (geometric CV): 1.32 (39.4)
  Tmax, median (minimum, maximum): 1.10 (0.47, 2.58) h
  t1/2, geometric mean (geometric CV): 4.09 (36.8) h
[5]
  AUCtau, geometric mean (geometric CV): 5144 (30.3) h*ng/mL
  Cmax, geometric mean (geometric CV): 1599 (33.7) ng/mL
  Cmin, geometric mean (geometric CV): 21.0 (2741.3) ng/mL
  Racc (accumulation ratio calculated by AUC), geometric mean (geometric CV): 1.18 (6.7)
  Tmax, median (minimum, maximum): 0.88 (0.38, 1.00) h
  t1/2, geometric mean (geometric CV): 2.45 (42.8) h
[6]
  AUCtau, geometric mean (geometric CV): 4432 (43.6) h*ng/mL
  Cmax, geometric mean (geometric CV): 1253 (7.3) ng/mL
  Cmin, geometric mean (geometric CV): 91.4 (72.9) ng/mL
  Racc (accumulation ratio calculated by AUC), geometric mean (geometric CV): 1.26 (9.2)
  Tmax, median (minimum, maximum): 0.75 (0.50, 1.00) h
  t1/2, geometric mean (geometric CV): 3.53 (3.1) h
[7]
  AUCtau, geometric mean (geometric CV): 8189 (29.3) h*ng/mL
  Cmax, geometric mean (geometric CV): 2303 (34.0) ng/mL
  Cmin, geometric mean (geometric CV): 129 (51.8) ng/mL
  Racc (accumulation ratio calculated by AUC), geometric mean (geometric CV): 1.17 (25.3)
  Tmax, median (minimum, maximum): 1.88 (0.50, 2.00) h
  t1/2, geometric mean (geometric CV): 2.59 (9.6) h
[8]
  AUCtau, geometric mean (geometric CV): 7732 (46.8) h*ng/mL
  Cmax, geometric mean (geometric CV): 2193 (29.1) ng/mL
  Cmin, geometric mean (geometric CV): 115 (92.5) ng/mL
  Racc (accumulation ratio calculated by AUC), geometric mean (geometric CV): 1.04 (32.5)
  Tmax, median (minimum, maximum): 0.50 (0.50, 1.00) h
  t1/2, geometric mean (geometric CV): 2.92 (18.3) h
[9]
  AUCtau, geometric mean (geometric CV): 11353 (27.9) h*ng/mL
  Cmax, geometric mean (geometric CV): 3034 (33.6) ng/mL
  Cmin, geometric mean (geometric CV): 164 (54.3) ng/mL
  Tmax, median (minimum, maximum): 0.50 (0.50, 2.05) h
Multiple dose, 85 mg BID 14d-on/14d-off (N=7), n=5 for Racc
  Racc (accumulation ratio calculated by AUC), geometric mean (geometric CV): 1.18 (24.1)^e
Multiple dose, 85 mg BID 14d-on/14d-off (N=7), n=5 for t1/2
  t1/2, geometric mean (geometric CV): 3.01 (20.0)^d h
Multiple doses
  geometric mean accumulation ratio (Racc, by AUC) across all dose groups: 1.02–1.32
Multiple doses / overall, 5–85 mg
  increase of exposure with dose: increased in an approximately proportional manner
Multiple doses, any cohort
  accumulation: No obvious accumulation
oral
  absorption after oral administration: rapidly absorbed
Single dose, 5–85 mg
  increase of plasma exposure (AUC0-t and Cmax) with dose: increased in an approximately proportional manner
[10]
  AUC0-12, geometric mean (geometric CV): 690 (51.3) h*ng/mL
  AUC0-inf, geometric mean (geometric CV): 769 (58.3) h*ng/mL
  AUC0-t, geometric mean (geometric CV): 754 (58.4) h*ng/mL
  Cmax, geometric mean (geometric CV): 215 (50.2) ng/mL
  Tmax, median (minimum, maximum): 0.65 (0.40, 0.97) h
  t1/2, geometric mean (geometric CV): 4.42 (82.9) h
[11]
  AUC0-12, geometric mean (geometric CV): 819 (99.0) h*ng/mL
  AUC0-inf, geometric mean (geometric CV): 864 (110.5) h*ng/mL
  AUC0-t, geometric mean (geometric CV): 852 (111.3) h*ng/mL
  Cmax, geometric mean (geometric CV): 250 (72.2) ng/mL
  Tmax, median (minimum, maximum): 0.88 (0.42, 0.93) h
  t1/2, geometric mean (geometric CV): 3.11 (106.3) h
[12]
  AUC0-12, geometric mean (geometric CV): 2551 (107.3) h*ng/mL
  AUC0-inf, geometric mean (geometric CV): 2825 (123.9) h*ng/mL
  AUC0-t, geometric mean (geometric CV): 2802 (123.7) h*ng/mL
  Cmax, geometric mean (geometric CV): 743 (65.1) ng/mL
  Tmax, median (minimum, maximum): 0.49 (0.43, 1.03) h
  t1/2, geometric mean (geometric CV): 4.90 (115.1) h
[13]
  AUC0-12, geometric mean (geometric CV): 4250 (50.4) h*ng/mL
  AUC0-inf, geometric mean (geometric CV): 4926 (47.8) h*ng/mL
  AUC0-t, geometric mean (geometric CV): 4895 (48.2) h*ng/mL
  Cmax, geometric mean (geometric CV): 972 (82.7) ng/mL
  Tmax, median (minimum, maximum): 0.95 (0.37, 3.80) h
  t1/2, geometric mean (geometric CV): 5.74 (37.6) h
[14]
  AUC0-12, geometric mean (geometric CV): 4147 (30.3) h*ng/mL
  AUC0-inf, geometric mean (geometric CV): 4603 (35.2) h*ng/mL
  AUC0-t, geometric mean (geometric CV): 4561 (35.3) h*ng/mL
  Cmax, geometric mean (geometric CV): 1180 (24.7) ng/mL
  Tmax, median (minimum, maximum): 0.69 (0.37, 0.90) h
Single dose, 40 mg BID 14d-on/14d-off (N = 4), n=3 for t1/2
  t1/2, geometric mean (geometric CV): 8.60 (103.8)^b h
[15]
  AUC0-12, geometric mean (geometric CV): 5100 (57.9) h*ng/mL
  AUC0-inf, geometric mean (geometric CV): 5906 (49.3) h*ng/mL
  AUC0-t, geometric mean (geometric CV): 5858 (50.2) h*ng/mL
  Cmax, geometric mean (geometric CV): 1209 (85.4) ng/mL
  Tmax, median (minimum, maximum): 0.96 (0.47, 1.92) h
  t1/2, geometric mean (geometric CV): 5.93 (51.2) h
[16]
  AUC0-12, geometric mean (geometric CV): 7028 (10.9) h*ng/mL
  AUC0-inf, geometric mean (geometric CV): 7870 (17.9) h*ng/mL
  AUC0-t, geometric mean (geometric CV): 7831 (17.8) h*ng/mL
  Cmax, geometric mean (geometric CV): 2172 (16.3) ng/mL
  Tmax, median (minimum, maximum): 0.68 (0.48, 2.00) h
  t1/2, geometric mean (geometric CV): 5.51 (34.3) h
[17]
  AUC0-12, geometric mean (geometric CV): 7455 (27.3) h*ng/mL
  AUC0-inf, geometric mean (geometric CV): 8284 (28.1) h*ng/mL
  AUC0-t, geometric mean (geometric CV): 8240 (27.9) h*ng/mL
  Cmax, geometric mean (geometric CV): 2555 (29.9) ng/mL
  Tmax, median (minimum, maximum): 0.50 (0.50, 1.10) h
  t1/2, geometric mean (geometric CV): 7.45 (61.8) h
[18]
  AUC0-12, geometric mean (geometric CV): 10074 (42.0) h*ng/mL
  AUC0-inf, geometric mean (geometric CV): 11164 (45.4) h*ng/mL
  AUC0-t, geometric mean (geometric CV): 11119 (45.5) h*ng/mL
  Cmax, geometric mean (geometric CV): 3225 (35.5) ng/mL
  Tmax, median (minimum, maximum): 0.58 (0.45, 1.12) h
  t1/2, geometric mean (geometric CV): 6.37 (41.6) h
